Here are results for 29 molecules from patent US5723747A, “Wax esters in transformed plants” (Calgene, Inc., priority 1994, dated 1998).

The target in series [1] is T1, jojoba acyl-CoA reductase (Simmondsia chinensis, UniProt Q9XGY7, S459G). Nature of the series: biochemical. To be noted: for effect of end-products and cofactors on reductase activity (in words): CoA and NADP+ at millimolar concentrations; for Reductase Activity, Acyl-CoA (10 μM): acyl-CoA as substrate at 10 μM, 0.5M NaCl, pH 7.5; for effect of salt on reductase activity (in words): 0.5M monobasic salts, divalent salts at 0.167M and 0.5M. Here is the method:
(§1) […] The incubation mixture also contains 10% w/v glycerol, 1 mM DTT, and is buffered with 50 mM HEPES (4-[2-hydroxyethyl]-1-piperazineethane-sulfonic acid) (HEPES, here and as referred to hereafter is added from a 1M stock solution adjusted to pH 7.5).
(§2) […] The assay is terminated by placing the assay tube on ice and immediately adding 0.25 ml isopropanol:acetic acid (5:1 v/v). Unlabeled wax esters (0.1 mg) and oleyl alcohol (0.1 mg) are added as carriers. The [^14 C] lipids are extracted by the scaled-down protocol of Hara and Radin (Anal. Biochem. (1978) 90:420). Six ml of hexane/isopropanol (3:2, v/v) is added to the terminated assay. The sample is vortexed, 2 ml of aqueous sodium sulphate solution (5.5% w/v) is added, and the sample is again vortexed.
(§3) The incubation mixture also contains 10% w/v glycerol, 1 mM DTT, and is buffered with 50 mM HEPES (4-[2-hydroxyethyl]-1-piperazineethane-sulfonic acid) (HEPES, here and as referred to hereafter is added from a 1M stock solution adjusted to pH 7.5). […]
(§4) […] The assay is terminated by placing the assay tube on ice and immediately adding 0.25 ml isopropanol:acetic acid (4:1 v/v). Unlabeled wax esters (25 μg), oleyl alcohol (50 μg), and oleic acid (50 μg) are added as carriers. The [^14 C] lipids are extracted by the scaled-down protocol of Hara and Radin (Anal. Biochem. (1978) 90:420). Four ml of hexane/isopropanol (3:2, v/v) is added to the terminated assay. The sample is vortexed, 2 ml of aqueous sodium sulphate solution (6.7% w/v) is added, and the sample is again vortexed.
(§5) Following addition of the sodium sulphate and vortexing the sample, the upper organic phase is removed and the lower aqueous phase is washed with 4 ml hexane/isopropanol (7:2 v/v). The organic phases are pooled and evaporated to dryness under nitrogen. The lipid residue is resuspended in a small volume of heptane, and an aliquot is assayed for radioactivity by liquid scintillation counting. The remainder of the sample can be used either for TLC analysis of the labeled classes, or for derivatization to cleave the wax esters, and thereby give a measure of total alcohol produced.
(§6) For lipid class analysis the sample is applied to a silica TLC plate, and the plate is developed in hexane/diethyl ether/acetic acid (such as 80:20:1 or 70:30:1 v/v/v). The distribution of radioactivity between the lipid classes, largely wax esters (when ligase is present, as in the microsomal membrane preparation assay), free fatty acids, fatty alcohols, and polar lipids at the origin, is measured using an AMBIS radioanalytic imaging system (AMBIS Systems Inc., San Diego, Calif.). If necessary the individual lipid classes can be recovered from the TLC plate for further analysis.
(§7) Following addition of the sodium sulfate and vortexing the sample, a known percentage of the organic phase is removed and counted via liquid scintillation counting. This calculation is used to estimate the total counts in the organic phase.

Series [2] has as its target jojoba acyl-CoA reductase (Simmondsia chinensis, UniProt Q9XGY7). Nature of the series: biochemical. Here is the method: as §1, §2, §3, §4, §5, §6, §7
A further series has as its target T2, jojoba wax synthase (Simmondsia chinensis, UniProt Q9XGY6).
T2 construct: added to a microsomal membrane fraction having wax synthase activity; from tissue; host or cells: jojoba microsomal membrane fraction
T2 sequence (Q9XGY6 1-352): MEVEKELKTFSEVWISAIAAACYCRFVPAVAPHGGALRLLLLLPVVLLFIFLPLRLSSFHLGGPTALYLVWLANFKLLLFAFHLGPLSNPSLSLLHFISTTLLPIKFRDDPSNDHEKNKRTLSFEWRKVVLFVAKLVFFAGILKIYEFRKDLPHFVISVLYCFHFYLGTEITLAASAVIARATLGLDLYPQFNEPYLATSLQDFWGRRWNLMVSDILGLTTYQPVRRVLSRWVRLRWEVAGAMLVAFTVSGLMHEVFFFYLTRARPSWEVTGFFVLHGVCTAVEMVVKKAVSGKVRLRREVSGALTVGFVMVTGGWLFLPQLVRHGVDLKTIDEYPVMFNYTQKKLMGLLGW
Nature of the series: Wax synthase assay, microsomal membrane fraction. The format is biochemical. To be noted: for Wax synthase Activity, Acyl Group: 80 μM acyl-CoA substrate, 100 μM radiolabeled oleyl alcohol; for Wax synthase Activity, Alcohol Group: 100 μM alcohol substrate, 40 μM radiolabeled eicosenoyl-CoA. The method, then:
Wax synthase activity is measured by incubation of 40 μM [1-^14 C]acyl-CoA (usually palmitoyl-CoA, sp. act. 5.1-5.6 mCi/mmol) and 200 μM oleyl alcohol with the sample to be assayed in a total volume of 0.25 ml. The incubation mixture also contains 20% w/v glycerol, 1 mM DTT, 0.5M NaCl and is buffered with 25 mM HEPES (4-[2-hydroxyethyl]-1-piperazineethane-sulfonic acid).
A substrate mixture is prepared in a glass vial, with oleyl alcohol being added immediately before use, and is added to samples.
Acyl-CoA and alcohol substrates having varying carbon chain lengths and degrees of unsaturation were added to a microsomal membrane fraction having wax synthase activity to determine the range of substrates recognized by the jojoba wax synthase. Wax synthase activity was measured as described in Example 1, with acyl specificity measured using 80 μM of acyl-CoA substrate and 100 μM of radiolabeled oleyl alcohol. Alcohol specificity was measured using 100 μM of alcohol substrate and 40 μM of radiolabeled eicosenoyl-CoA.

Series [3] has as its target T1, jojoba acyl-CoA reductase. Further details: The microsomal membrane preparation described above is used for further characterization of the reductase enzyme; from tissue; host or cells: jojoba embryos (about 90 to 110 days postanthesis), microsomal membrane preparation. The conditions noted are these: previously shown, Pollard et al.; cited from earlier work.
The mark [4] stands for this setting: palmitoyl thioesters as acyl substrates.

Like-named read-outs stand apart in the source and are kept apart here.

T1 sequence (Q9XGY7 whole entry S459G): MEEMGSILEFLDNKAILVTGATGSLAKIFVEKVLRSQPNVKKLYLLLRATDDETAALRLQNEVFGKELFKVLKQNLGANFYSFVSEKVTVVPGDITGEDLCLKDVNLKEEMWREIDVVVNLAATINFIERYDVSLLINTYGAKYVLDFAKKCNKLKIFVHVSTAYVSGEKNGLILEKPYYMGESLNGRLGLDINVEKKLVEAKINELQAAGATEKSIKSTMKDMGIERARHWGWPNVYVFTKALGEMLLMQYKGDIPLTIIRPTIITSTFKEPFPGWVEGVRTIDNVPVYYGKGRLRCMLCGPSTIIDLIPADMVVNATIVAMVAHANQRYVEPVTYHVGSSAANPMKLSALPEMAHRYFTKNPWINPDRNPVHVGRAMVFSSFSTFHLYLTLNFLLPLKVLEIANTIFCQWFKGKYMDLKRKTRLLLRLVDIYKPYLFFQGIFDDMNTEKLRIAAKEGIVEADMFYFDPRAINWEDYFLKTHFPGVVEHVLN
jojoba acyl-CoA reductase (Simmondsia chinensis, UniProt Q9XGY7), sequence (Q9XGY7 whole entry S459G): as above

With `O=C(O)CN(CCN(CC(=O)O)CC(=O)O)CC(=O)O` [EDTA, ethylenediaminetetraacetic acid], the “effect of effector on reductase activity (in words)” value in series [1] was “some stimulation”.
As to `CC(C)(COP(=O)(O)OP(=O)(O)OC[C@H]1O[C@@H](n2cnc3c(N)ncnc32)[C@H](O)[C@@H]1OP(=O)(O)O)[C@@H](O)C(=O)NCCC(=O)NCCS` [CoA], in series [1], the “effect of end-products and cofactors on reductase activity (in words)” value is on record as “significant inhibition”.
Regarding `CCCCCCCCCCCCCCCC(=O)SCCNC(=O)CCNC(=O)[C@H](O)C(C)(C)COP(=O)(O)OP(=O)(O)OC[C@H]1O[C@@H](n2cnc3c(N)ncnc32)[C@H](O)[C@@H]1OP(=O)(O)O` [16:0, palmitoyl-CoA], in series [2], 5 µM corresponded to half-maximal inhibition (IC50).
`[Cl-].[Na+]` [NaCl]: the “stimulation of reductase activity” value in series [1] (addition of 0.5M salt, 500000 µM) was “Up to 15 fold”.
Take `C/C=C/C/C=C/CCC(=O)[C@H]1O[C@H]1C(N)=O` [Cerulinen]: the “inhibitory effect on jojoba acyl-CoA reductase activity (in words)” value in series [1] was “no strong inhibitory effect”.
Turning to `NC(=O)c1ccc[n+]([C@@H]2O[C@H](COP(=O)([O-])OP(=O)(O)OC[C@H]3O[C@@H](n4cnc5c(N)ncnc54)[C@H](OP(=O)(O)O)[C@@H]3O)[C@@H](O)[C@H]2O)c1` [NADP+], the “effect of end-products and cofactors on reductase activity (in words)” value in series [1] is “significant inhibition”.
In the case of `CCCCCCCC/C=C\CCCCCCCCCCCC(=O)SCCNC(=O)CCNC(=O)[C@H](O)C(C)(C)COP(=O)(O)OP(=O)(O)OC[C@H]1O[C@@H](n2cnc3c(N)ncnc32)[C@H](O)[C@@H]1OP(=O)(O)O` [22:1], the “Reductase Activity, Acyl-CoA (10 μM)” value in series [1] was determined as 1.0 pmol/min/µL. Moreover, on jojoba wax synthase, the “Wax synthase Activity, Acyl Group” value is 39 pmol/min and the “Wax synthase Activity, Alcohol Group” value stood at 41 pmol/min.
Consider `CCCCC/C=C\C/C=C\CCCCCCCC(=O)SCCNC(=O)CCNC(=O)[C@H](O)C(C)(C)COP(=O)(O)OP(=O)(O)OC[C@H]1O[C@@H](n2cnc3c(N)ncnc32)[C@H](O)[C@@H]1OP(=O)(O)O` [18:2], for which, at jojoba wax synthase, the “Wax synthase Activity, Acyl Group” value was 7 pmol/min and the “Wax synthase Activity, Alcohol Group” value is 123 pmol/min.
Take `[Cl-].[Cl-].[Mg+2]` [MgCl2]: in series [1], the “effect of salt on reductase activity (in words)” value is “stimulate reductase activity”.
Regarding `CC[C@H](C)C(=O)O[C@H]1C[C@@H](C)C=C2C=C[C@H](C)[C@H](CC[C@@H]3C[C@@H](O)CC(=O)O3)[C@H]21` [Mevinolin], in series [1] (only has an effect at relatively high concentrations), the “concentration at which an effect on jojoba acyl-CoA reductase is seen” value is 100 µM.
With `CCCCCCCCCCCCCCCCCC(=O)SCCNC(=O)CCNC(=O)[C@H](O)C(C)(C)COP(=O)(O)OP(=O)(O)OC[C@H]1O[C@@H](n2cnc3c(N)ncnc32)[C@H](O)[C@@H]1OP(=O)(O)O` [18:0], the “Reductase Activity, Acyl-CoA (10 μM)” value in series [1] stood at 1.4 pmol/min/µL. Also, on jojoba wax synthase, the “Wax synthase Activity, Acyl Group” value worked out at 51 pmol/min and the “Wax synthase Activity, Alcohol Group” value amounted to 56 pmol/min.
Take `[Cl-].[K+]` [KC1]: the “effect of salt on reductase activity (in words)” value in series [1] is “stimulate reductase activity”.
In the case of `CCCCCCCCCCCCCC(=O)SCCNC(=O)CCNC(=O)[C@H](O)C(C)(C)COP(=O)(O)OP(=O)(O)OC[C@H]1O[C@@H](n2cnc3c(N)ncnc32)[C@H](O)[C@@H]1OP(=O)(O)O` [14:0], on jojoba wax synthase, the “Wax synthase Activity, Acyl Group” value is 95 pmol/min and the “Wax synthase Activity, Alcohol Group” value was determined as 145 pmol/min.
Consider palmitoyl-ACP [16:0], for which the “activity as substrate of the reductase (in words)” value in series [1] (substrate specificity experiment, 10 uM substrate) is listed as “high”. Besides, the “wax synthase activity relative to acyl-CoA” value in the series with jojoba wax synthase (setting [4]) is reported as ~ 10 % of that with acyl-CoA.
As to `O=S(=O)([O-])[O-].[Na+].[Na+]` [Na2 SO4], in series [1], the “effect of salt on reductase activity (in words)” value is “stimulate reductase activity”.
Take `O[C@H](CS)[C@H](O)CS` (racemic) [DTT, Dithiothreitol]: in series [1], the “effect of effector on reductase activity (in words)” value is listed as “stimulatory”.
For the molecule `NC(=O)CI` [iodoacetamide], the “inhibitory effect on jojoba acyl-CoA reductase activity (in words)” value in series [1] is “no effect”.
Turning to stearoyl-ACP, the “activity as substrate of the reductase (in words)” value in series [3] is “shown to have activity as a substrate”.
On to `CCN1C(=O)C=CC1=O` [N-ethylmaleimide], for which the “inhibitory effect on jojoba acyl-CoA reductase activity (in words)” value in series [1] is recorded as “strongly inhibit”.
For `[Ca+2].[Cl-].[Cl-]` [CaCl2], the “effect of salt on reductase activity (in words)” value in series [1] is “stimulate reductase activity”.
As for `O=C(O)c1cc[c]([Hg][OH])cc1` [para-hydroxymercuribenzoate], in series [1], the “inhibitory effect on jojoba acyl-CoA reductase activity (in words)” value is “some inhibitory effect”.
With `[Cl-].[Li+]` [LiC1], the “effect of salt on reductase activity (in words)” value in series [1] is “stimulate reductase activity”.
`N#CS` [KSCN]: the “effect of salt on reductase activity (in words)” value in series [1] is reported as “no stimulation or marginal stimulation”.
bovine serum albumin [BSA]: the “effect on reductase activity (in words)” value was “inhibition of activity” in series [1] (concentrations at and above 0.2 mg/ml); “small stimulation” in series [1] (low concentrations, 0.02-0.075 mg/ml).
As to `CCCCCCCCCCCCCCCC(=O)SCCNC(C)=O` [N-acetyl-S-palmitoyl cysteamine], the “wax synthase activity towards acyl-thioester substrates (in words)” value at jojoba wax synthase (setting [4]) was “no activity was detectable”.
With `CCCCCCCCCCCCCCCCCCCC(=O)SCCNC(=O)CCNC(=O)[C@H](O)C(C)(C)COP(=O)(O)OP(=O)(O)OC[C@H]1O[C@@H](n2cnc3c(N)ncnc32)[C@H](O)[C@@H]1OP(=O)(O)O` [20:0], at jojoba wax synthase, the “Wax synthase Activity, Acyl Group” value is 49 pmol/min and the “Wax synthase Activity, Alcohol Group” value is 21 pmol/min.
For `CCCCCCCCCCCCCCCCCCCCCC(=O)SCCNC(=O)CCNC(=O)[C@H](O)C(C)(C)COP(=O)(O)OP(=O)(O)OC[C@H]1O[C@@H](n2cnc3c(N)ncnc32)[C@H](O)[C@@H]1OP(=O)(O)O` [22:0], at jojoba wax synthase, the “Wax synthase Activity, Acyl Group” value came to 46 pmol/min and the “Wax synthase Activity, Alcohol Group” value was 17 pmol/min.
In the case of `NC(=O)c1ccc[n+]([C@@H]2O[C@H](COP(=O)([O-])OP(=O)(O)OC[C@H]3O[C@@H](n4cnc5c(N)ncnc54)[C@H](O)[C@@H]3O)[C@@H](O)[C@H]2O)c1` [AND+], the “effect of end-products and cofactors on reductase activity (in words)” value in series [1] is listed as “marginal effects”.
The same measure, in the same setting: as for `NC(=O)C1=CN([C@@H]2O[C@H](COP(=O)(O)OP(=O)(O)OC[C@H]3O[C@@H](n4cnc5c(N)ncnc54)[C@H](O)[C@@H]3O)[C@@H](O)[C@H]2O)C=CC1` [NADH], the entry is “marginal effects”.

As usually defined, the IC50 is the concentration needed to halve the response being measured. A high value points to lower potency.
